Key:
[1] = hplc
physchem = details: hplc
Phytophthora infestans = type: in vivo; details: tomato, protective; application rate of 50 g/ha; 3 days after the inoculation
Plasmopara viticola = experiment: Plasmopara Test (Grapevine)/protective; type: in vivo; details: protective, application rate of 50 g/ha, 6 days after the inoculation
[2] = E/Z mixture, second of two values (Z position)

| Structure (SMILES) | chromatographic logP (physchem) | chromatographic logP (logP determined by HPLC; E/Z mixture, (E position)) | chromatographic logP (logP determined by HPLC; [2]) | chromatographic logP (logP determined by HPLC; single value (single isomer)) | efficacy (Phytophthora infestans) [%] | further results |
| --- | --- | --- | --- | --- | --- | --- |
| CCOc1ccc(CC(C)NC(=O)C(=NOC)c2ccc(Cl)cc2)cc1OC (stereo not shown) [Example 4] | 3.26 | – | – | – | – | logP [1]: 3.56 |
| CCON=C(C(=O)NC(C)Cc1ccc(OCC)c(OC)c1)c1ccc(Br)cc1 (stereo not shown) [Example 9] | – | 3.69 | 4.01 | – | – | – |
| CCOc1ccc(CC(C)NC(=O)C(=NOC)c2ccc(Br)cc2)cc1OC (stereo not shown) [Example 2] | 3.34 | – | – | – | – | logP [1]: 3.64 |
| CCO/N=C(\C(=O)NC(C)Cc1ccc(OCC)c(OC)c1)c1ccc(CC)cc1 (stereo not shown) [Example 19] | – | – | – | 4.05 | – | – |
| CCO/N=C(/C(=O)NC(C)Cc1ccc(OCC)c(OC)c1)c1ccc2c(c1)CCC2 (stereo not shown) [Example 18] | – | – | – | 3.79 | – | – |
| CCOc1ccc(CC(C)NC(=O)C(=NOC)c2ccc3c(c2)CCC3)cc1OC (stereo not shown) [Example 3] | – | 3.13 | 3.44 | – | – | – |
| CCO/N=C(/C(=O)NC(C)Cc1ccc(OCC)c(OC)c1)c1ccc2c(c1)CCCC2 (stereo not shown) [Example 13] | – | – | – | 4.07 | ≥ 86 | – |
| CCOc1ccc(CC(C)NC(=O)C(=NOC)c2ccc(C)cc2)cc1OC (stereo not shown) [Example 10] | 3.04 | – | – | – | – | logP [1]: 3.34 |
| CCON=C(C(=O)NC(C)Cc1ccc(OCC)c(OC)c1)c1ccc(Cl)cc1 (stereo not shown) [Example 11] | – | 3.59 | 3.91 | – | ≥ 86 | – |
| CCON=C(C(=O)NC(C)Cc1ccc(OCC)c(OC)c1)c1ccc2c(c1)CCCC2 (stereo not shown) [Example 8] | – | 4.07 | 4.41 | – | – | – |
| CCOc1ccc(CC(C)NC(=O)C(=NOC)c2ccc3c(c2)CCCC3)cc1OC (stereo not shown) [Example 1, N-[2-(4-ethoxy-3-methoxyphenyl)-1-methylethyl]-2-methoxyimino-2-(5,6,7,8-tetrahydronaphthalin-2-yl)-acetic acid amide] | – | 3.72 | 4.04 | – | ≥ 86 | – |
| CCON=C(C(=O)NC(C)Cc1ccc(OCC)c(OC)c1)c1ccc(C)cc1 (stereo not shown) [Example 14] | – | 3.38 | 3.71 | – | ≥ 86 | efficacy (Plasmopara viticola): ≥ 96% |
| CCOc1ccc(CC(C)NC(=O)/C(=N\OC)c2ccc(Br)cc2)cc1OC (stereo not shown) [Example 5] | 3.64 | – | – | – | – | – |
| CCON=C(C(=O)NC(C)Cc1ccc(OCC)c(OC)c1)c1ccc2c(c1)CCC2 (stereo not shown) [Example 16] | – | 3.79 | 4.1 | – | – | – |
| CCOc1ccc(CC(C)NC(=O)/C(=N/OC)c2ccc(Br)cc2)cc1OC (stereo not shown) [Example 6] | 3.34 | – | – | – | ≥ 86 | efficacy (Plasmopara viticola): ≥ 96% |
| CCO/N=C(\C(=O)NC(C)Cc1ccc(OCC)c(OC)c1)c1ccc2c(c1)CCC2 (stereo not shown) [Example 17] | – | – | – | 4.1 | – | – |
| CCOc1ccc(CC(C)NC(=O)/C(=N/OC)c2ccc(Cl)cc2)cc1OC (stereo not shown) [Example 7] | 3.26 | – | – | – | ≥ 86 | efficacy (Plasmopara viticola): ≥ 96% |
| CCON=C(C(=O)NC(C)Cc1ccc(OCC)c(OC)c1)c1ccc(CC)cc1 (stereo not shown) [Example 15] | – | 3.73 | 4.05 | – | – | – |
| CCON=C(C(=O)NC(C)Cc1ccc(OCC)c(OC)c1)c1ccc2c(c1)CCCC2 (stereo not shown) [Example 12] | – | – | – | 4.41 | – | – |
| CCO/N=C(/C(=O)NC(C)Cc1ccc(OCC)c(OC)c1)c1ccc(Br)cc1 (stereo not shown) [Example 20] | – | – | – | 3.69 | – | – |
